Reference: patent publication US12655126B2, “Imidazole-pyrazole derivatives as antibacterials” (Hoffmann-La Roche Inc., priority 2020, dated 2026)
Where a name gives a salt, the structure may show the parent alone.

These molecules were tested on Acinetobacter baumannii ATCC17961 (assay: Antimicrobial susceptibility testing: 90% growth inhibitory concentration (IC90) determination). Conditions: Acinetobacter baumannii ATCC17961; Iso-Sensitest broth; growth by OD 600 nm over 16 h; 90% growth inhibitory concentration; read-out: ATCC 17961 IC90.
Type: cell-based
Experimental: Antimicrobial Susceptibility Testing:
90% Growth Inhibitory Concentration (IC90) Determination
The in vitro antimicrobial activity of the compounds was determined according to the following procedure:
The assay used a 10-points Iso-Sensitest broth medium to measure quantitatively the in vitro activity of the compounds against Acinetobacter baumannii ATCC17961.
Stock compounds in DMSO were serially twofold diluted (e.g. range from 50 to 0.097 μM final concentration) in 384 wells microtiter plates and inoculated with 49 μl the bacterial suspension in Iso-Sensitest medium to have a final cell concentration of ˜5×10^(5) CFU/ml in a final volume/well of 50 ul/well. Microtiter plates were incubated at 35±2° C.
Bacterial cell growth was determined with the measurement of optical density at λ=600 nm each minutes over a time course of 16 h. Growth inhibition was calculated during the logarithmic growth of the bacterial cells with determination of the concentration inhibiting 50% (IC50) and 90% (IC90) of the growth.
Table 1 provides the 90% growth inhibitory concentrations (IC90) in micromoles per liter of the compounds of present invention obtained against the strain Acinetobacter baumannii ATCC17961.

`Cn1c(-c2cn(-c3ncccn3)nc2C(F)(F)F)cnc1C(=O)Nc1ccc(C(=O)N2CC[N+](C)(C)CC2)c(Cl)c1` [Example B9, 4-(2-chloro-4-(1-methyl-5-(1-(pyrimidin-2-yl)-3-(trifluoromethyl)-1H-pyrazol-4-yl)-1H-imidazole-2-carboxamido)benzoyl)-1,1-dimethylpiperazin-1-ium] and `Cn1c(-c2cn(-c3ncccn3)nc2C(F)(F)F)cnc1C(=O)Nc1ccc(C(=O)N2CCN(C(=O)[C@@H]3[C@@H](O)CC[N+]3(C)C)CC2)c(Cl)c1` [Example B3, N-[3-chloro-4-[4-[(2S,3S)-3-hydroxy-1,1-dimethyl-pyrrolidin-1-ium-2-carbonyl]piperazine-1-carbonyl]phenyl]-1-methyl-5-[1-pyrimidin-2-yl-3-(trifluoromethyl)pyrazol-4-yl]imidazole-2-carboxamide; formate] are within 1.5-fold of each other in IC90: 5200 nM for the first, 3800 nM for the second.

First: COCc1c[nH]nc1-n1cc(-c2cnc(C(=O)Nc3ccc(C(=O)N4CCN(C(=O)C5CC[N+](C)(C)CC5)CC4)c(Cl)c3)n2C)c(C(F)(F)F)n1 [Example K3, N-[3-chloro-4-[4-(1,1-dimethylpiperidin-1-ium-4-carbonyl)piperazine-1-carbonyl]phenyl]-5-[1-[4-(methoxymethyl)-1H-pyrazol-3-yl]-3-(trifluoromethyl)pyrazol-4-yl]-1-methyl-imidazole-2-carboxamide]
Second: Cn1c(-c2cn(-c3ccc(CO)cn3)nc2C(F)(F)F)cnc1C(=O)Nc1ccc(C(=O)N2CCN(C(=O)C3CC[N+](C)(C)CC3)CC2)c(Cl)c1 [Example F1, N-[3-Chloro-4-[4-(1,1-dimethylpiperidin-1-ium-4-carbonyl)piperazine-1-carbonyl]phenyl]-5-[1-[5-(hydroxymethyl)-2-pyridyl]-3-(trifluoromethyl)pyrazol-4-yl]-1-methyl-imidazole-2-carboxamide; formate]
The IC90 of the first is 3.3-fold higher: 1300 nM for the first, 390 nM for the second.

`Cn1c(-c2cn(-c3ccc(N)cn3)nc2C(F)(F)F)cnc1C(=O)Nc1ccc(C(=O)N2CCN(C(=O)[C@@H]3[C@@H](O)CC[N+]3(C)C)CC2)c(Cl)c1` (racemic) [Example D2, 5-[1-(5-amino-2-pyridyl)-3-(trifluoromethyl)pyrazol-4-yl]-N-[3-chloro-4-[4-[(2S,3S)-3-hydroxy-1,1-dimethyl-pyrrolidin-1-ium-2-carbonyl]piperazine-1-carbonyl]phenyl]-1-methyl-imidazole-2-carboxamide; formate] and `Cn1c(-c2cn(-c3ccc(N)cn3)nc2C(F)(F)F)cnc1C(=O)Nc1ccc(C(=O)N2CCN(C(=O)[C@H]3CC[N+](C)(C)C[C@H]3O)CC2)c(Cl)c1` (stereo in doubt) [Example D7, 5-[1-(5-amino-2-pyridyl)-3-(trifluoromethyl)pyrazol-4-yl]-N-[3-chloro-4-[4-[(3S,4S)-3-hydroxy-1,1-dimethyl-piperidin-1-ium-4-carbonyl]piperazine-1-carbonyl]phenyl]-1-methyl-imidazole-2-carboxamide; formate] are the same in IC90: 400 nM for the first, 400 nM for the second.

Compared with `Cn1c(-c2cn(-c3ncccn3)nc2C(F)(F)F)cnc1C(=O)Nc1ccc(C(=O)N2CCN(C(=O)C3CC[N+](C)(C)CC3O)CC2)c(Cl)c1` (stereo not drawn) [Example B4, N-[3-chloro-4-[4-(3-hydroxy-1,1-dimethyl-piperidin-1-ium-4-carbonyl)piperazine-1-carbonyl]phenyl]-1-methyl-5-[1-pyrimidin-2-yl-3-(trifluoromethyl)pyrazol-4-yl]imidazole-2-carboxamide; formate], `COc1ccc(-n2cc(-c3cnc(C(=O)Nc4ccc(C(=O)N5CCN(C(=O)[C@@H]6CC[N+](C)(C)C[C@H]6O)CC5)c(Cl)c4)n3C)c(C(F)(F)F)n2)nc1` [Example B5, N-[3-chloro-4-[4-[(3S,4R)-3-hydroxy-1,1-dimethyl-piperidin-1-ium-4-carbonyl]piperazine-1-carbonyl]phenyl]-5-[1-(5-methoxy-2-pyridyl)-3-(trifluoromethyl)pyrazol-4-yl]-1-methyl-imidazole-2-carboxamide] is 6.1-fold lower in IC90: 1900 nM for the first, 310 nM for the second.

Going from `Cn1c(-c2cn(-c3ncccn3)nc2C(F)(F)F)cnc1C(=O)Nc1ccc(C(=O)N2CCN(C(=O)C3CC[N+](C)(CC(N)=O)CC3)CC2)c(Cl)c1` (stereo not drawn) [Example C2, N-[4-[4-[1-(2-amino-2-oxo-ethyl)-1-methyl-piperidin-1-ium-4-carbonyl]piperazine-1-carbonyl]-3-chloro-phenyl]-1-methyl-5-[1-pyrimidin-2-yl-3-(trifluoromethyl)pyrazol-4-yl]imidazole-2-carboxamide; formate] to `Cn1c(-c2cn(-c3ccc(N)cn3)nc2C(F)(F)F)cnc1C(=O)Nc1ccc(C(=O)N2CCN(C(=O)C[N+]3(C)CCC(O)C3)CC2)c(Cl)c1` (stereo not drawn) [Example D11, 5-[1-(5-amino-2-pyridyl)-3-(trifluoromethyl)pyrazol-4-yl]-N-[3-chloro-4-[4-[2-(3-hydroxy-1-methyl-pyrrolidin-1-ium-1-yl)acetyl]piperazine-1-carbonyl]phenyl]-1-methyl-imidazole-2-carboxamide; formate], the IC90 falls from 1100 nM to 210 nM (5.2-fold).

`Cn1c(-c2cn(-c3ccc(N)cn3)nc2C(F)(F)F)cnc1C(=O)Nc1ccc(C(=O)N2CCN(C(=O)[C@@H]3COCC[N+]3(C)C)CC2)c(Cl)c1` [Example D13, 5-[1-(5-amino-2-pyridyl)-3-(trifluoromethyl)pyrazol-4-yl]-N-[3-chloro-4-[4-[(3S)-4,4-dimethylmorpholin-4-ium-3-carbonyl]piperazine-1-carbonyl]phenyl]-1-methyl-imidazole-2-carboxamide; formate] and `COc1ccc(-n2cc(-c3cnc(C(=O)Nc4ccc(C(=O)N5CCN(C(=O)C[N+]6(C)CC[C@@H](O)C6)CC5)c(Cl)c4)n3C)c(C(F)(F)F)n2)nc1` (stereo partly drawn) [Example A7, N-[3-chloro-4-[4-[2-[(3R)-3-hydroxy-1-methyl-pyrrolidin-1-ium-1-yl]acetyl]piperazine-1-carbonyl]phenyl]-5-[1-(5-methoxy-2-pyridyl)-3-(trifluoromethyl)pyrazol-4-yl]-1-methyl-imidazole-2-carboxamide; formate] are within 1.5-fold of each other in IC90: 420 nM for the first, 550 nM for the second.

Compared with `Cn1c(-c2cn(-c3ccc(N)cn3)nc2C(F)(F)F)cnc1C(=O)Nc1ccc(C(=O)NCC2CCN(C(=O)C3CC[N+](C)(C)CC3)CC2)c(Cl)c1` [Example D12, 5-[1-(5-amino-2-pyridyl)-3-(trifluoromethyl)pyrazol-4-yl]-N-[3-chloro-4-[[1-(1,1-dimethylpiperidin-1-ium-4-carbonyl)-4-piperidyl]methylcarbamoyl]phenyl]-1-methyl-imidazole-2-carboxamide; formate], `Cn1c(-c2cn(-c3ccc(N)cn3)nc2C(F)(F)F)cnc1C(=O)Nc1ccc(C(=O)N[C@H]2[C@@H]3CN(C(=O)[C@@H]4C[C@@H](O)C[N+]4(C)C)C[C@@H]32)c(Cl)c1` [Example D17, 5-[1-(5-amino-2-pyridyl)-3-(trifluoromethyl)pyrazol-4-yl]-N-[3-chloro-4-[[(exo)-3-[(2S,4R)-4-hydroxy-1,1-dimethyl-pyrrolidin-1-ium-2-carbonyl]-3-azabicyclo[3.1.0]hexan-6-yl]carbamoyl]phenyl]-1-methyl-imidazole-2-carboxamide] is 4.3-fold lower in IC90: 1300 nM for the first, 300 nM for the second.

Same assay, conditions: Acinetobacter baumannii, ATCC17961, 16 h, read-out: ATCC 17961 IC90

First: Cn1c(-c2cn(-c3ncccn3)nc2C(F)(F)F)cnc1C(=O)Nc1ccc(C(=O)N2CCN(C(=O)C3CC[N+](C)(CC4CNC4)CC3)CC2)c(Cl)c1 (stereo not drawn) [Example C1, N-[4-[4-[1-(Azetidin-3-ylmethyl)-1-methyl-piperidin-1-ium-4-carbonyl]piperazine-1-carbonyl]-3-chloro-phenyl]-1-methyl-5-[1-pyrimidin-2-yl-3-(trifluoromethyl)pyrazol-4-yl]imidazole-2-carboxamide; formate]
Second: Cn1c(-c2cn(-c3ncccn3)nc2C(F)(F)F)cnc1C(=O)Nc1ccc(C(=O)N2CCN(C(=O)C[N+]3(C)CC[C@@H](O)C3)CC2)c(Cl)c1 (stereo partly drawn) [Example A6, N-[3-chloro-4-[4-[2-[(3R)-3-hydroxy-1-methyl-pyrrolidin-1-ium-1-yl]acetyl]piperazine-1-carbonyl]phenyl]-1-methyl-5-[1-pyrimidin-2-yl-3-(trifluoromethyl)pyrazol-4-yl]imidazole-2-carboxamide; formate]
The IC90 of the first is 3.2-fold lower: 410 nM for the first, 1300 nM for the second.

Going from `CNc1ccc(-n2cc(-c3cnc(C(=O)Nc4ccc(C(=O)N5CCN(C(=O)C6CC[N+](C)(C)CC6)CC5)c(Cl)c4)n3C)c(C(F)(F)F)n2)nc1` [Example E1, N-[3-Chloro-4-[4-(1,1-dimethylpiperidin-1-ium-4-carbonyl)piperazine-1-carbonyl]phenyl]-1-methyl-5-[1-[5-(methylamino)-2-pyridyl]-3-(trifluoromethyl)pyrazol-4-yl]imidazole-2-carboxamide; formate] to `Cn1c(-c2cn(-c3ncccn3)nc2C(F)(F)F)cnc1C(=O)Nc1ccc(C(=O)N[C@H]2[C@@H]3CN(C(=O)[C@@H]4C[C@@H](O)C[N+]4(C)C)C[C@@H]32)c(Cl)c1` (racemic) [Example B8, rac-(2R,4S)-2-((1R,5S,6S)-6-(2-chloro-4-(1-methyl-5-(1-(pyrimidin-2-yl)-3-(trifluoromethyl)-1H-pyrazol-4-yl)-1H-imidazole-2-carboxamido)benzamido)-3-azabicyclo[3.1.0]hexane-3-carbonyl)-4-hydroxy-1,1-dimethylpyrrolidin-1-ium], the IC90 rises from 100 nM to 1500 nM (15-fold).
